Measured values published in patent US20200171166A1, “GEL COMPOSITION AND METHOD FOR PRODUCING GEL COMPOSITION” (Shimadzu Corporation, priority 2015, published 2020).

Test system: three-dimensional cultured corneal epithelium model from human normal corneal epithelium cells (LabCyte CORNEA-MODEL)
Assay: Irritativeness test using a cornea model (WST-8 assay)
Format: cell-based
Settings: exposure to 50 μL of test substance
Procedure: Prepared as test substances were hydrogels made under the same conditions as in the above preparation examples 3A to 3C (prepared from methanol gel, ethanol gel, and 2-butanol gel, respectively); solution in which 611 mg of NMP was added to 500 mg of PLGA; NMP; and distilled water (negative reference). A standard protocol was followed using a three-dimensional cultured corneal epithelium model from human normal corneal epithelium cells (J-TEC, LabCyte CORNEA-MODEL), and exposure tests were carried out on 50 μL of the test substances. Using a WST-8 assay kit (Dojin Chemical, product code: CK04), following the exposure test, a WST-8 assay was done on the samples, the OD value was measured with a plate reader (TECAN, Infinite 200 Pro), and the relative survival rate (proportion of live cells) was calculated for the negative object (distilled water).

CN1CCCC1=O [NMP, N-methyl pyrrolidone]
irritativeness toward the cornea: strong
